This passage reports TGI and GI50 results from PubChem BioAssay (NCI).

Among the test systems are M14 melanoma; PC-3 prostate; SF-539 CNS; MDA-MB-435; CCRF-CEM leukemia; HS 578T breast; SK-OV-3 ovarian; NCI-H23 lung; MALME-3M melanoma; NCI-H226 lung.
Common to all, as to experiment: NCI tumour cell line growth inhibition, 48 h

Several values for one entry are separate records, joined by “and”; a condition that tells them apart may be missing. Identical values can stand only once.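 Values below derive from 48-hour exposures of cells grown in 96-well plates, with endpoints linearly interpolated between the two concentrations bracketing the appropriate inhibition level. GI50 marks 50% less growth. TGI: total growth inhibition.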

As to `COc1ccc2c(c1)-c1[nH]c3ccccc3c1CC2`, the TGI in the experiment with M14 melanoma was determined as 31.5 µM; with PC-3 prostate, 29.6 µM; with SF-539 CNS it was 31.2 µM; in the experiment on MDA-MB-435, 31.7 µM; in the experiment on CCRF-CEM leukemia it was 50.8 µM; with HS 578T breast it was 30.6 µM. Further, the TGI was 33.6 µM with SK-OV-3 ovarian, 26.9 µM in the experiment on NCI-H23 lung, 25.6 µM in the experiment with MALME-3M melanoma and 26.2 µM with NCI-H226 lung.
For `CC(/C=N/NC1=NCCCN1)=N\NC1=NCCCN1`, the TGI in the experiment on M14 melanoma, with PC-3 prostate, in the experiment with SF-539 CNS, with MDA-MB-435, in the experiment with CCRF-CEM leukemia and in the experiment with HS 578T breast was more than 100 µM in each case. The TGI with SK-OV-3 ovarian, in the experiment on NCI-H23 lung, in the experiment on MALME-3M melanoma and in the experiment with NCI-H226 lung was more than 100 µM throughout.
As for `COc1cc(C=O)cc(C=Nc2ccc(S(N)(=O)=O)cc2)c1O`, the TGI worked out at 14.6 µM in the experiment on M14 melanoma; 21.3 µM with PC-3 prostate; 7.94 µM in the experiment on SF-539 CNS; 49 µM with MDA-MB-435; 33.8 µM with CCRF-CEM leukemia; 6.16 µM with HS 578T breast. The TGI in the experiment with SK-OV-3 ovarian is 7.93 µM; with NCI-H23 lung it was more than 100 µM; in the experiment on MALME-3M melanoma, 7.78 µM; with NCI-H226 lung, 9.58 µM.
Regarding `COc1ccc(C[C@@H]2OC3(C=CC(=O)C=C3)O[C@H]2Cc2ccc(OC)cc2)cc1`, the TGI in the experiment with M14 melanoma amounted to 2.53 µM; in the experiment with PC-3 prostate it was 3.47 µM; with SF-539 CNS it was 2.63 µM; in the experiment on MDA-MB-435 it was 3.5 µM; with CCRF-CEM leukemia, 0.521 µM; in the experiment with HS 578T breast, 23.3 µM. Further, the TGI in the experiment on SK-OV-3 ovarian was 13.5 µM; in the experiment on NCI-H23 lung, 3.53 µM; in the experiment on MALME-3M melanoma, 4.22 µM; with NCI-H226 lung, 0.652 µM.
Turning to `C#CCCCC(=O)N(C(=O)CS(=O)CC)c1ccccc1` (stereo not given), the TGI in the experiment on M14 melanoma, with PC-3 prostate, in the experiment on SF-539 CNS, in the experiment with MDA-MB-435, with CCRF-CEM leukemia and in the experiment on HS 578T breast was more than 100 µM throughout. Further, the TGI with SK-OV-3 ovarian, in the experiment with NCI-H23 lung, with MALME-3M melanoma and in the experiment with NCI-H226 lung was more than 100 µM throughout.
Regarding `COP(C)(=O)C(Cc1c[nH]c2ccccc12)NC(=O)OCc1ccccc1` (stereo not given), the TGI with M14 melanoma, in the experiment with PC-3 prostate, in the experiment with SF-539 CNS, with MDA-MB-435, with CCRF-CEM leukemia and in the experiment with HS 578T breast was more than 100 µM throughout. The TGI with SK-OV-3 ovarian, in the experiment on NCI-H23 lung, in the experiment with MALME-3M melanoma and with NCI-H226 lung was more than 100 µM in each case.
As for `COc1ccccc1NCC(=O)Nn1c(C)nc2ccc(S(=O)(=O)Nc3ccccc3OC)cc2c1=O`, the TGI in the experiment on M14 melanoma was more than 100 µM; with PC-3 prostate it was more than 100 µM; with SF-539 CNS it was more than 100 µM; in the experiment on MDA-MB-435, 85.2 µM; in the experiment with CCRF-CEM leukemia it was more than 100 µM; in the experiment on HS 578T breast, more than 100 µM. Moreover, the TGI in the experiment with SK-OV-3 ovarian, in the experiment with NCI-H23 lung, in the experiment on MALME-3M melanoma and in the experiment on NCI-H226 lung was more than 100 µM throughout.
As for `Cc1sc2nc3n(c(=O)c2c1C)N=C(c1ccc([N+](=O)[O-])cc1)CS3`, the TGI in the experiment with PC-3 prostate, in the experiment with SF-539 CNS, with MDA-MB-435, with CCRF-CEM leukemia, with HS 578T breast and in the experiment on SK-OV-3 ovarian was more than 100 µM each time. In addition, the TGI in the experiment with NCI-H23 lung, in the experiment with MALME-3M melanoma and in the experiment on NCI-H226 lung was more than 100 µM each time.
Regarding `CCOC(=O)CC[C@H](N)C(=O)N[C@H](Cc1ccc(N(CCCl)CCCl)cc1)C(=O)OCC`, the TGI with M14 melanoma is 12.9 µM; in the experiment on PC-3 prostate it was 17.7 µM; in the experiment with SF-539 CNS, 8.83 µM; in the experiment with MDA-MB-435, more than 47.7 µM; with CCRF-CEM leukemia it was more than 100 µM; in the experiment on HS 578T breast, 6.64 µM. Moreover, the TGI is 11.7 µM with SK-OV-3 ovarian, 4.29 µM in the experiment with NCI-H23 lung, 13.9 µM in the experiment on MALME-3M melanoma and more than 47.7 µM with NCI-H226 lung.
As to `C[N+](C)(N)c1nc(N)c(C#N)c(C#N)c1C#N`, the TGI with M14 melanoma, in the experiment with PC-3 prostate, with SF-539 CNS, with MDA-MB-435, in the experiment with CCRF-CEM leukemia and in the experiment on HS 578T breast was more than 10 µM throughout. The TGI with SK-OV-3 ovarian, in the experiment with NCI-H23 lung, in the experiment with MALME-3M melanoma and with NCI-H226 lung was more than 10 µM throughout.
`CC(=O)OCC1OC(N2C(S)=C(C#N)C(c3ccco3)C(C(C)=O)=C2c2ccccc2)C(OC(C)=O)C(OC(C)=O)C1OC(C)=O` (stereo not given): the TGI in the experiment with M14 melanoma is more than 100 µM; in the experiment on PC-3 prostate, more than 100 µM; in the experiment with SF-539 CNS it was more than 100 µM; in the experiment with MDA-MB-435, more than 100 µM; in the experiment on CCRF-CEM leukemia it was more than 100 µM; with HS 578T breast, 48.4 µM. The TGI in the experiment on NCI-H23 lung, with MALME-3M melanoma and with NCI-H226 lung was more than 100 µM each time.
For the compound `COc1ccccc1NS(=O)(=O)c1ccc2ncn(NS(=O)(=O)c3ccc(Cl)cc3)c(=O)c2c1`, the TGI in the experiment on M14 melanoma, with PC-3 prostate, in the experiment with SF-539 CNS, in the experiment with MDA-MB-435, in the experiment on CCRF-CEM leukemia and with HS 578T breast was more than 100 µM throughout. Moreover, the TGI with SK-OV-3 ovarian, in the experiment on NCI-H23 lung, in the experiment on MALME-3M melanoma and in the experiment with NCI-H226 lung was more than 100 µM each time.
In the case of `CC(=O)C1(O)Cc2c(O)c3c(c(O)c2C(OC2CC(N)C(O)C(C)O2)C1)C(=O)c1ccccc1C3=O` (stereo not given), the GI50 in the experiment with M14 melanoma is 14.5 nM; with PC-3 prostate, 43.7 nM; in the experiment with SF-539 CNS, 11.6 nM; in the experiment on MDA-MB-435 it was 67.4 nM; in the experiment with CCRF-CEM leukemia, 2.14 nM; in the experiment with SK-OV-3 ovarian, less than 12.9 nM. Besides, the results for the GI50 in the experiment with NCI-H23 lung and in the experiment with NCI-H226 lung were less than 12 nM and less than 11.3 nM, respectively. The TGI is 0.605 µM and 0.158 µM in the experiment on M14 melanoma; 0.741 µM in the experiment on PC-3 prostate; 0.199 µM and 0.0511 µM in the experiment on SF-539 CNS; 0.389 µM and 0.47 µM with MDA-MB-435; 0.391 µM with HS 578T breast; 0.788 µM and 0.129 µM in the experiment on SK-OV-3 ovarian. Also, the TGI in the experiment with NCI-H23 lung was 0.12 µM and 0.046 µM; in the experiment with MALME-3M melanoma it was 0.0666 µM; in the experiment with NCI-H226 lung, 0.139 µM and 0.0538 µM.
